# Experimental data taken from ChEMBL document CHEMBL2385065, “Antiproliferative homoscalarane sesterterpenes from two Madagascan sponges” (Bioorg Med Chem, 2013).
# Legend:
# Format in all cases: functional, cell-based
# [1] = Cytotoxicity against human H522-T1 cells after 96 hrs by CellTire-Glo luminescent assay; conditions: H522-T1, 96 h
# A2058 = assay: Cytotoxicity against human A2058 cells after 96 hrs by CellTire-Glo luminescent assay; conditions: A2058, 96 h
# A2780 = assay: Cytotoxicity against human A2780 cells after 2 days by alamar Blue assay; conditions: A2780, 48 h
SMILES,IC50 [1] [nM],IC50 (A2058) [nM],IC50 (A2780) [nM]
CC1(O)OC(=O)C2=C1CC[C@H]1[C@]3(C)CC[C@H]4C(C)(C)CCC[C@]4(CO)[C@H]3C[C@@H](O)[C@]21C (stereo partly specified),> 10000,> 10000,8700
CC(=O)O[C@H]1C[C@H]2[C@@](C)(CC[C@H]3C(C)(C)CCC[C@@]32CO)[C@@H]2CC=C(C(C)=O)[C@H](C=O)[C@@]12C,–,–,650
CC(=O)C1=CC[C@H]2[C@]3(C)CC[C@H]4C(C)(C)CCC[C@]4(CO)[C@H]3C[C@@H](O)[C@]2(C)[C@H]1C=O (relative stereo),610,> 370,280
CC1(C)CCC[C@@]2(CO)[C@H]1CC[C@]1(C)[C@@H]2C[C@@H](O)[C@]2(C)[C@H]3C=CC(=O)C3=CC[C@@H]12 (relative stereo),5280,4170,4500
CC(=O)C1=CC[C@H]2[C@]3(C)CC[C@H]4C(C)(C)CCC[C@]4(CO)[C@H]3C[C@H](O)[C@]2(C)[C@@H]1C=O (relative stereo),1700,1830,260
CC(=O)O[C@H]1C(=O)[C@@]2(C)[C@H]([C@H](OC(=O)c3ccccc3)[C@]3(O)C[C@H](OC(=O)[C@H](O)[C@@H](NC(=O)c4ccccc4)c4ccccc4)C(C)=C1C3(C)C)[C@]1(OC(C)=O)CO[C@@H]1C[C@@H]2O [PACLITAXEL],8.1,4.7,12
